# From US20180362543A1, “HIV REPLICATION INHIBITOR” (Shionogi & Co., Ltd., priority 2013, published 2018)
# Tested on: HIV (HTLV-III B strain)
# Assay: HIV replication inhibition assay (MTT, MT-4 cells)
# Format: cell-based
# Conditions: Human immunodeficiency virus 1, MT4, 96 h, Table A-3, four days
# Method: HIV (HTLV-III B strain) persistent infected human T cell strain Molt-4 clone 8 was cultured in 10% Fetal Bovine Serum-containing RPMI-1640 medium and the supernatant was filtrated, then the virus titer was measured and the solution was stored at −80° C. Each anti-human immunodeficiency virus active substance was diluted with the above cultured medium to the designated concentration, which was dispensed into 96 well micro plate by 50 μL. Next, a MT-4 cell suspended liquid was dispensed by 100 μL (2.5×10^4 cells), then the above HIV-containing supernatant diluted with the above cultured medium was added thereto by 50 μL (60 pfu (plaque forming unit)).
# The obtained mixture was cultured at 37° C. in CO2 incubator for four days, then 3-(4,5-dimehylthiazole-2-yl)-2,5-diphenyltetrazolynium bromide (MTT) 5 mg/mL in PBS was added to each well by 30 μL, followed by 1 hr-cultivation. In this step, as formazan was precipitated by reduction of MTT in living cells, the cell supernatant was removed from all well by 150 μL, then a 150 μL of solution (10% Triton X-100 and […]) was added thereto, followed by shaking with a plate mixer, to elute formazan. The formazan was measured with a microreader at OD: 560 nm and 690 nm (wavelength) and the result was compared with the reference. EC50 means the compound concentration at which cell cytotoxicity by virus is inhibited 50%.
row,EC50 [µM],Structure (SMILES)
1,0.015,Cc1ccc(-c2c(C)c3c(c(C)c2[C@H](OC(C)(C)C)C(=O)O)N(S(C)(=O)=O)Cc2c(F)cccc2-3)cc1 [Compound 163]
2,0.0041,Cc1ccc(-c2c(C)c3c(c(C)c2[C@H](OC(C)(C)C)C(=O)O)N(S(C)(=O)=O)Cc2cc(OC(F)(F)F)ccc2-3)cc1 [Compound 164]
3,0.0017,Cc1ccc(-c2c(C)c3c(c(C)c2[C@H](OC(C)(C)C)C(=O)O)N(S(C)(=O)=O)Cc2cc4c(cc2-3)COC4)cc1 [Compound 166]
4,0.0085,Cc1ccc(-c2c(C)c3c(c(C)c2[C@H](OC(C)(C)C)C(=O)O)N(S(C)(=O)=O)Cc2cc(F)ccc2-3)cc1 [Compound 167]
5,0.024,COc1ccc2c(c1)-c1c(C)c(-c3ccc(C)cc3)c([C@H](OC(C)(C)C)C(=O)O)c(C)c1N(S(C)(=O)=O)C2 [Compound 168]
6,0.0096,Cc1ccc(-c2c(C)c3c(c(C)c2[C@H](OC(C)(C)C)C(=O)O)N(S(C)(=O)=O)Cc2cccc(C(F)(F)F)c2-3)cc1 [Compound 169]
7,0.021,Cc1ccc(-c2c(C)c3c(c(C)c2[C@H](OC(C)(C)C)C(=O)O)NS(=O)(=O)N(c2ccc(F)cc2)CC3)cc1 [Compound 171]
8,0.042,Cc1ccc(-c2c(C)c3c(c(C)c2[C@H](OC(C)(C)C)C(=O)O)N(S(C)(=O)=O)Cc2c(F)ccc(C)c2-3)cc1 [Compound 172]
9,0.0094,Cc1ccc(-c2c(C)c3c(c(C)c2[C@H](OC(C)(C)C)C(=O)O)N(S(C)(=O)=O)Cc2c-3cccc2C(F)(F)F)cc1 [Compound 173]
10,0.0015,COc1ccc2c(c1F)CN(S(C)(=O)=O)c1c(C)c([C@H](OC(C)(C)C)C(=O)O)c(-c3ccc(C)cc3)c(C)c1-2 [Compound 174]
11,0.0029,Cc1ccc(-c2c(C)c3c(c(C)c2[C@H](OC(C)(C)C)C(=O)O)N(S(C)(=O)=O)Cc2cc4c(cc2-3)OCCCO4)cc1 [Compound 175]
12,0.034,Cc1ccc(-c2c(C)c3c(c(C)c2[C@H](OC(C)(C)C)C(=O)O)NC(=O)N(Cc2ccc(F)cc2)CC3)cc1 [Compound 177]
13,0.021,Cc1ccc(-c2c(C)c3c(c(C)c2[C@H](OC(C)(C)C)C(=O)O)N(S(C)(=O)=O)Cc2cscc2-3)cc1 [Compound 183]
14,0.053,Cc1ccc(-c2c(C)c3c4c(c2C(OC(C)(C)C)C(=O)O)CCCN4S(=O)(=O)N(Cc2ccc(F)cc2)C3)cc1 (centres unmarked) [Compound 184]

# Same assay, conditions: Human immunodeficiency virus 1, MT4, 96 h, Table A-4, four days
row,EC50 [µM],Structure (SMILES)
1,0.015,Cc1ccc(-c2c(C)c3c(c(C)c2[C@H](OC(C)(C)C)C(=O)O)N(S(C)(=O)=O)Cc2c(C)cccc2-3)cc1 [Compound 208]
2,0.038,Cc1ccc(-c2c(C)c3c(c(C)c2[C@H](OC(C)(C)C)C(=O)O)N(S(C)(=O)=O)Cc2ccncc2-3)cc1 [Compound 210]
3,0.0019,Cc1ccc(-c2c(C)c3c(c(C)c2[C@H](OC(C)(C)C)C(=O)O)N(S(C)(=O)=O)Cc2cc(F)cc(F)c2-3)cc1 [Compound 212]
4,0.0049,COc1cc2c(cn1)-c1c(C)c(-c3ccc(C)cc3)c([C@H](OC(C)(C)C)C(=O)O)c(C)c1N(S(C)(=O)=O)C2 [Compound 214]
5,0.046,Cc1ccc(-c2c([C@H](OC(C)(C)C)C(=O)O)c(C)c3nc(O)c4ccc(C(F)(F)F)nc4c3c2C)cc1 [Compound 216]
6,0.041,Cc1ccc(-c2c([C@H](OC(C)(C)C)C(=O)O)c(C)c3nc(O)c4ccc(C)nc4c3c2C)cc1 [Compound 217]
7,0.0064,Cc1c(-c2c([C@H](OC(C)(C)C)C(=O)O)c(C)c3nc(O)c4cc(F)cnc4c3c2C)ccc2c1CCCO2 [Compound 218]
8,0.0073,Cc1ccc(-c2c(C)c3c(c(C)c2[C@H](OC(C)(C)C)C(=O)O)N(S(C)(=O)=O)Cc2ccc(F)c(F)c2-3)cc1 [Compound 220]
9,0.09,Cc1ccc(-c2c([C@H](OC(C)(C)C)C(=O)O)c(C)c3nc(O)c4c(c3c2C)CCCN4)cc1 [Compound 221]
10,0.034,COc1ccc2c(c1)c(O)nc1c(C)c([C@H](OC(C)(C)C)C(=O)O)c(-c3ccc(C)cc3)c(C)c12 [Compound 223]
11,0.0025,Cc1c(-c2c(C)c3c(c(C)c2[C@H](OC(C)(C)C)C(=O)O)N(S(C)(=O)=O)Cc2cccc(F)c2-3)ccc2c1CCCO2 [Compound 224]
12,0.058,COc1ccc2c(O)nc3c(C)c([C@H](OC(C)(C)C)C(=O)O)c(-c4ccc(C)cc4)c(C)c3c2c1 [Compound 226]
13,0.019,Cc1ccc(-c2c(C)c3c(c(C)c2[C@H](OC(C)(C)C)C(=O)O)N(S(C)(=O)=O)Cc2c(F)cc(F)cc2-3)cc1 [Compound 228]
14,0.094,Cc1ccc(-c2c([C@H](OC(C)(C)C)C(=O)O)c(C)c3nc(O)c4ccc(F)cc4c3c2C)cc1 [Compound 230]
15,0.078,Cc1ccc(-c2c([C@H](OC(C)(C)C)C(=O)O)c(C)c3nc(O)c4cc(F)c(F)cc4c3c2C)cc1 [Compound 231]
16,0.012,Cc1ccc(-c2c([C@H](OC(C)(C)C)C(=O)O)c(C)c3nc(O)c4cc5c(cc4c3c2C)OCCO5)cc1 [Compound 232]
17,0.038,Cc1ccc(-c2c([C@H](OC(C)(C)C)C(=O)O)c(C)c3nc(O)c4cc5ccccc5nc4c3c2C)cc1 [Compound 233]
18,0.0054,Cc1c(-c2c(C)c3c(c(C)c2[C@H](OC(C)(C)C)C(=O)O)N(S(C)(=O)=O)Cc2cccc(F)c2-3)ccc2c1NCCO2 [Compound 235]
19,0.012,Cc1c(-c2c([C@H](OC(C)(C)C)C(=O)O)c(C)c3nc(O)c4cc(F)cnc4c3c2C)ccc2c1NCCO2 [Compound 237]
20,0.031,Cc1c([C@H](OC(C)(C)C)C(=O)O)c(-c2ccc(Cl)cc2)c(C)c2c1nc(O)c1cc(F)cnc12 [Compound 238]
21,0.081,Cc1ccc(-c2c([C@H](OC(C)(C)C)C(=O)O)c(C)c3ncc4cc(F)cnc4c3c2C)cc1 [Compound 239]
22,0.015,Cc1ccc(-c2c([C@H](OC(C)(C)C)C(=O)O)c(C)c3nc(N)c4cc(F)cnc4c3c2C)cc1 [Compound 245]
23,0.0023,Cc1c(-c2c(C)c3c(c(C)c2[C@H](OC(C)(C)C)C(=O)O)N(S(C)(=O)=O)Cc2c(F)ccc(F)c2-3)ccc2c1CCCO2 [Compound 246]

# Same assay, conditions: Human immunodeficiency virus 1, MT4, 96 h, Table A-5, four days
row,EC50 [µM],Structure (SMILES)
1,0.011,Cc1ccc(-c2c(C)c3c(c(C)c2[C@H](OC(C)(C)C)C(=O)O)N(S(C)(=O)=O)Cc2nc(C)ccc2-3)cc1 [Compound 248]
2,0.0058,Cc1c(-c2c(C)c3c(c(C)c2[C@H](OC(C)(C)C)C(=O)O)N(S(C)(=O)=O)Cc2c(F)ccc(F)c2-3)ccc2c1NCCO2 [Compound 249]
3,0.0021,Cc1ccc2c(c1F)CN(S(C)(=O)=O)c1c(C)c([C@H](OC(C)(C)C)C(=O)O)c(-c3ccc4c(c3C)CCCO4)c(C)c1-2 [Compound 251]
4,0.0031,Cc1ccc2c(c1F)CN(S(C)(=O)=O)c1c(C)c([C@H](OC(C)(C)C)C(=O)O)c(-c3ccc4c(c3C)NCCO4)c(C)c1-2 [Compound 254]
5,0.0039,Cc1c(C2=CCC(C)(C)CC2)c([C@H](OC(C)(C)C)C(=O)O)c(C)c2c1-c1c(F)cccc1CN2S(C)(=O)=O [Compound 258]
6,0.027,Cc1c(-c2ccc3c(c2)C(F)(F)CCO3)c([C@H](OC(C)(C)C)C(=O)O)c(C)c2c1-c1c(F)cccc1CN2S(C)(=O)=O [Compound 259]
7,0.014,Cc1c(-c2ccc3c(c2)NCCO3)c([C@H](OC(C)(C)C)C(=O)O)c(C)c2c1-c1c(F)cccc1CN2S(C)(=O)=O [Compound 260]
8,0.025,Cc1c(-c2ccc3c4c(ccnc24)CCO3)c([C@H](OC(C)(C)C)C(=O)O)c(C)c2c1-c1c(F)cccc1CN2S(C)(=O)=O [Compound 262]
9,0.012,COc1ccc(-c2c(C)c3c(c(C)c2[C@H](OC(C)(C)C)C(=O)O)N(S(C)(=O)=O)Cc2cccc(F)c2-3)cc1 [Compound 263]
10,0.019,Cc1c(-c2ccc(F)cc2)c([C@H](OC(C)(C)C)C(=O)O)c(C)c2c1-c1c(F)cccc1CN2S(C)(=O)=O [Compound 264]
11,0.011,Cc1c(-c2ccc(Cl)cc2)c([C@H](OC(C)(C)C)C(=O)O)c(C)c2c1-c1c(F)cccc1CN2S(C)(=O)=O [Compound 265]
12,0.0079,Cc1c(-c2ccc3c(c2)CCCO3)c([C@H](OC(C)(C)C)C(=O)O)c(C)c2c1-c1c(F)cccc1CN2S(C)(=O)=O [Compound 266]
13,0.0045,Cc1c(-c2c(C)c3c(c(C)c2[C@H](OC(C)(C)C)C(=O)O)N(S(C)(=O)=O)Cc2cccc(F)c2-3)cc(F)c2c1CCCO2 [Compound 273]
14,0.015,COc1ccc(-c2c(C)c3c(c(C)c2[C@H](OC(C)(C)C)C(=O)O)N(S(C)(=O)=O)Cc2cccc(F)c2-3)c(C)c1 [Compound 275]
15,0.0037,Cc1ccc(-c2c(C)c3c(c(C)c2[C@H](OC(C)(C)C)C(=O)O)N(S(C)(=O)=O)Cc2cccc(F)c2-3)c(C)c1 [Compound 278]
16,0.011,Cc1ccc(-c2c(C)c3c(c(C)c2[C@H](OC(C)(C)C)C(=O)O)N(S(C)(=O)=O)Cc2cc(C#N)ccc2-3)cc1 [Compound 279]
17,0.0088,Cc1c(-c2ccc3c(c2F)NCCO3)c([C@H](OC(C)(C)C)C(=O)O)c(C)c2c1-c1c(F)cccc1CN2S(C)(=O)=O [Compound 282]
18,0.016,Cc1ccc(-c2c(C)c3c(c(C)c2[C@H](OC(C)(C)C)C(=O)O)N(S(C)(=O)=O)Cc2cc(F)cnc2-3)cc1 [Compound 284]
19,0.055,Cc1ccc(-c2c(C)c3c(c(C)c2[C@H](OC(C)(C)C)C(=O)O)N(S(C)(=O)=O)CC2CCCCN32)cc1 (some centres unmarked) [Compound 285]
